What all share (assay type): in vivo
The subject of one series is Stellaria media. Kind of series: Post-emergence herbicidal action against weed plants. To be noted: 504 h, one-leaf stage, visual assessment after about 3 weeks vs untreated controls (100% = plants have died). The protocol:
(§1) 2. Post-emergence Herbicidal Action Against Weed Plants Seeds of monocotyledonous and dicotyledonous weed and crop plants are placed in sandy loam in wood-fiber pots, covered with soil and cultivated in a greenhouse under good growth conditions. 2 to 3 weeks after sowing, the test plants are treated at the one-leaf stage. The inventive compounds formulated in the form of wettable powders (WP) or as emulsion concentrates (EC) are then sprayed onto the green parts of the plants as an aqueous suspension or emulsion at a water application rate of 600 to 800 I/ha (converted) with addition of 0.2% wetting agent. After the test plants have been left to stand in the greenhouse under optimal growth conditions for about 3 weeks, the action of the formulations is assessed visually in comparison to untreated controls (herbicidal action in percent (%): 100% activity=the plants have died, 0% activity=like control plants).

Another series deals with Abutilon theophrasti. The description is as above. To be noted: 504 h, one-leaf stage, visual assessment after about 3 weeks vs untreated controls (100% = plants have died). The protocol:
as §1

In the next series the test system is maize. Briefly: Pre-emergence test, damage to crop plants. To be noted: 320 g/ha, visual assessment after 3 weeks.

Among the data in patent US9169219B2, “Herbicidally active 4-nitro-substituted N-(tetrazol-5-yl)-, N-(triazol-5-yl)-, and N-(1,3,4-0XADIAZOL-2-yl)aryl carboxylic acid amides” (BAYER INTELLECTUAL PROPERTY GMBH, priority 2012, dated 2015) are pest or weed control and damage in maize values, retold here.

Structures are written as SMILES.

Regarding `CCn1nnnc1NC(=O)c1ccc([N+](=O)[O-])c(OC)c1Cl` [2-44], the pest or weed control at 80 g/ha in the series on Stellaria media and in the series on Abutilon theophrasti was not below 80% in each case.
On to `CCn1nnnc1NC(=O)c1ccc([N+](=O)[O-])c(OCCCOC)c1Br` [2-19], for which, in the series on maize, the damage in maize entry is on record as “no damage whatsoever”.
Turning to `CCn1nnnc1NC(=O)c1ccc([N+](=O)[O-])c(OC)c1Br` [2-1], the pest or weed control at 80 g/ha with Stellaria media and in the series on Abutilon theophrasti was not below 80% in each case.
For `COCCOc1c([N+](=O)[O-])ccc(C(=O)Nc2nnnn2C)c1Cl` [1-61], the damage in maize entry with maize was “no damage whatsoever”.
As to `CCn1nnnc1NC(=O)c1ccc([N+](=O)[O-])c(OCC2COCCO2)c1C` (stereo not shown) [2-120], the pest or weed control at 80 g/ha in the series on Stellaria media and with Abutilon theophrasti was not below 80% in each case.
As for `Cn1nnnc1NC(=O)c1ccc([N+](=O)[O-])c(OCC2COCCO2)c1Br` (stereo not shown) [1-34], the pest or weed control at 80 g/ha in the series on Stellaria media and with Abutilon theophrasti was not below 80% each time. For the same compound, in the series with maize, the damage in maize result is on record as “no damage whatsoever”.
For `CCn1nnnc1NC(=O)c1ccc([N+](=O)[O-])c(OCC2COCCO2)c1Br` (stereo not shown) [2-34], the pest or weed control at 80 g/ha in the series on Stellaria media and with Abutilon theophrasti was not below 80% each time.
Regarding `Cc1c(C(=O)Nc2nnnn2C)ccc([N+](=O)[O-])c1OCC1COCCO1` (stereo not shown) [1-119], the pest or weed control at 80 g/ha in the series on Stellaria media and in the series on Abutilon theophrasti was not below 80% throughout.
As for `Cn1nnnc1NC(=O)c1ccc([N+](=O)[O-])c(OCC2COCCO2)c1Cl` (stereo not shown) [1-77], the pest or weed control at 80 g/ha with Stellaria media and in the series with Abutilon theophrasti was not below 80% throughout. In the series on maize, the damage in maize entry is “no damage whatsoever”.
Regarding `Cn1nnnc1NC(=O)c1ccc([N+](=O)[O-])c(OCC2OCCO2)c1Cl` [1-78], the pest or weed control at 80 g/ha in the series on Stellaria media and with Abutilon theophrasti was not below 80% throughout. Besides, in the series with maize, the damage in maize entry was “no damage whatsoever”.
Consider `COc1c([N+](=O)[O-])ccc(C(=O)Nc2nnnn2C)c1Cl` [1-44], for which the pest or weed control at 80 g/ha in the series with Stellaria media and in the series with Abutilon theophrasti was not below 80% each time.
`CCn1nnnc1NC(=O)c1ccc([N+](=O)[O-])c(OCCOC)c1C` [2-104]: the damage in maize result with maize is reported as “no damage whatsoever”.
For `CCn1nnnc1NC(=O)c1ccc([N+](=O)[O-])c(OCCCOC)c1Cl` [2-62], the damage in maize result with maize is on record as “no damage whatsoever”.
As to `COc1c([N+](=O)[O-])ccc(C(=O)Nc2nnnn2C)c1Br` [1-1, 2-bromo-3-methoxy-N-(1-methyl-1H-tetrazol-5-yl)-4-nitrobenzamide], the pest or weed control at 80 g/ha with Stellaria media and in the series on Abutilon theophrasti was not below 80% throughout.
Regarding `COCCCOc1c([N+](=O)[O-])ccc(C(=O)Nc2nnnn2C)c1Cl` [1-62], the damage in maize result with maize is given as “no damage whatsoever”.
Same read-out and setting: with `CCOCCOc1c([N+](=O)[O-])ccc(C(=O)Nc2nnnn2C)c1Br` [1-20] the entry was “no damage whatsoever”.
Consider `CCn1nnnc1NC(=O)c1ccc([N+](=O)[O-])c(OCCOC)c1Cl` [2-61], for which the damage in maize entry in the series on maize was “no damage whatsoever”.
For `CCn1nnnc1NC(=O)c1ccc([N+](=O)[O-])c(OCC(=O)N(C)C)c1C` [2-123], in the series with maize, the damage in maize result was “no damage whatsoever”.
